Experiments:
[1] = molecular target: T1, RORγ-LBD (Homo sapiens, UniProt P51449); assay: RORγ-Ligand Binding Domain (LBD) TR-FRET Assay; assay type: biochemical; settings: for TR-FRET Assay Max Response: maximum response;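 on TR-FRET Assay Max Response: 665/615 nm signal ratio set to 100 without ursolic acid or test compound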
T1 construct: made in house; host or cells: SF9 cells (baculovirus); used as diluted lysate
T1 sequence (P51449 269-508 limits assumed): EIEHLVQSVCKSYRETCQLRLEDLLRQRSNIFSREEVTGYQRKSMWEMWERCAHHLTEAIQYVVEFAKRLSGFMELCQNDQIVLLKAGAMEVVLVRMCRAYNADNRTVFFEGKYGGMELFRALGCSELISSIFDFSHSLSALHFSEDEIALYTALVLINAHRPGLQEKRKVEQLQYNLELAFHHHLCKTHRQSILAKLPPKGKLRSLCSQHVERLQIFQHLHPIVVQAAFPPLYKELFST
Outline: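 SF9 lysate containing His-RORγ-LBD, ~3 nM final; coactivator peptide biotin-SRC1 LXXLL, 200 nM final; ursolic acid 2 μM final; DMSO 1% final; Tris pH 7.0 buffer with KCl, EDTA, DTT, BSA. TR-FRET format.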

[2] = molecular target: T2, Gal4-RORγ-LBD (Homo sapiens, UniProt P51449); assay: Gal4-RORγ Luciferase Reporter Assay in HEK-293T Cells; assay type: cell-based; settings: HEK-293 cells, luciferase reporter; for Gal4-RORγ Assay Max Response: maximum response
T2 construct: expressed in transfected cells
T2 sequence (P51449 269-508 limits assumed): T1 sequence (P51449 269-508 limits assumed)
Outline: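 HEK-293 cells were co-transfected with Gal4-RORγ-LBD and a Gal4-luciferase reporter, then exposed overnight at 37 °C to compounds with […] ursolic acid present (0.2% DMSO). Luminescence was read with One-Glo after 10 min at RT, untreated signal was set as 100, and Max Response was taken as the upper plateau of a 4-parameter logistic fit.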

Structure (SMILES) | EC50 ([1]; RORγ-LBD TR-FRET assay) | EC50 ([2]; in presence of ursolic acid) | EC50 ([1]; RORγ-LBD TR-FRET) | EC50 ([2]; with ursolic acid) | TR-FRET Assay Max Response ([1]; RORγ-LBD TR-FRET assay) | Gal4-RORγ Assay Max Response ([2]; in presence of ursolic acid)
C/C(=C\c1ccc2c(c1)N(S(=O)(=O)c1cccc(C(F)(F)F)c1)[C@H](C)[C@@H](O)C2)c1c(F)cccc1Cl (racemic) [Example 177, rac-(2R,3S)-7-((E)-2-(2-Chloro-6-fluorophenyl)prop-1-en-1-yl)-2-methyl-1-((3-(trifluoromethyl)phenyl)sulfonyl)-1,2,3,4-tetrahydroquinolin-3-ol] | < 500 nM | 500 to 5000 nM |  |  | ** (a value in the range of greater than 90 to 150) | ** (a value in the range of greater than 90 to 150)
CCOc1ncc(Cl)cc1S(=O)(=O)N1C[C@H](CCC(=O)O)Oc2ccc(/C=C(\C)c3c(F)cccc3Cl)cc21 [Example 68, (S,E)-3-(4-((5-Chloro-2-ethoxypyridin-3-yl)sulfonyl)-6-(2-(2-chloro-6-fluorophenyl)prop-1-en-1-yl)-3,4-dihydro-2H-benzo[b][1,4]oxazin-2-yl)propanoic acid] |  |  | < 500 nM | 500 to 5000 nM |  | 
C/C(=C\c1ccc2c(c1)N(S(=O)(=O)c1cccc(C(F)(F)F)c1)[C@H](C)[C@H](N)C2)c1c(F)cccc1Cl [Example 147, (2R,3R)-7-((E)-2-(2-Chloro-6-fluorophenyl)prop-1-en-1-yl)-2-methyl-1-((3-(trifluoromethyl)phenyl)sulfonyl)-1,2,3,4-tetrahydroquinolin-3-amine] | < 500 nM | 500 to 5000 nM |  |  | *** (a value in the range of greater than 150 to 200) | ** (a value in the range of greater than 90 to 150)
C/C(=C\c1cc2c(cc1C)O[C@@H](CCC(=O)O)CN2S(=O)(=O)c1cccc(OC(F)F)c1)c1c(F)cccc1Cl [Example 54, (S,E)-3-(6-(2-(2-Chloro-6-fluorophenyl)prop-1-en-1-yl)-4-((3-(difluoromethoxy)phenyl)sulfonyl)-7-methyl-3,4-dihydro-2H-benzo[b][1,4]oxazin-2-yl)propanoic acid] |  |  | < 500 nM | 500 to 5000 nM |  | 
COC(=O)CC[C@H]1CN(S(=O)(=O)c2cccc(C(F)(F)F)c2)c2cc(/C=C(\C)c3c(F)cccc3Cl)cc(F)c2O1 [Example 49, (S,E)-Methyl 3-(6-(2-(2-chloro-6-fluorophenyl)prop-1-en-1-yl)-8-fluoro-4-((3-(trifluoromethyl)phenyl)sulfonyl)-3,4-dihydro-2H-benzo[b][1,4]oxazin-2-yl)propanoate] |  |  | < 500 nM | 500 to 5000 nM |  | 
O=C(O)CC[C@H]1CN(S(=O)(=O)c2cccc(C(F)(F)F)c2)c2cc(C=C3CCCCC3)ccc2O1 [Example 91, (S)-3-(6-(Cyclohexylidenemethyl)-4-((3-(trifluoromethyl)phenyl)sulfonyl)-3,4-dihydro-2H-benzo[b][1,4]oxazin-2-yl)propanoic acid] |  |  | < 500 nM | 500 to 5000 nM |  | 
C/C(=C\c1ccc2c(c1)N(S(=O)(=O)c1cccc(C(F)(F)F)c1)[C@H](C)[C@H](C(=O)O)C2)c1c(F)cccc1Cl [Example 142, (2R,3R)-7-((E)-2-(2-Chloro-6-fluorophenyl)prop-1-en-1-yl)-2-methyl-1-((3-(trifluoromethyl)phenyl)sulfonyl)-1,2,3,4-tetrahydroquinoline-3-carboxylate] | < 500 nM | < 500 nM |  |  | ** (a value in the range of greater than 90 to 150) | ** (a value in the range of greater than 90 to 150)
C/C(=C\c1ccc2c(c1F)N(S(=O)(=O)c1cccc(OC(F)F)c1)C[C@H](CCC(=O)O)O2)c1c(F)cccc1Cl [Example 64, (S,E)-3-(6-(2-(2-Chloro-6-fluorophenyl)prop-1-en-1-yl)-4-((3-(difluoromethoxy)phenyl)sulfonyl)-5-fluoro-3,4-dihydro-2H-benzo[b][1,4]oxazin-2-yl)propanoic acid] |  |  | < 500 nM | 500 to 5000 nM |  | 

Further lines, with some results ahead:

EC50 ([1]; RORγ-LBD TR-FRET assay) | EC50 ([2]; in presence of ursolic acid) | EC50 ([1]; RORγ-LBD TR-FRET) | EC50 ([2]; with ursolic acid) | Structure (SMILES) | TR-FRET Assay Max Response ([1]; RORγ-LBD TR-FRET assay) | Gal4-RORγ Assay Max Response ([2]; in presence of ursolic acid)
< 500 nM | < 500 nM |  |  | C/C(=C\c1ccc2c(c1)N(S(=O)(=O)c1cccc(C(F)(F)F)c1)C[C@H](CCCN1CCS(=O)(=O)CC1)O2)c1c(F)cccc1Cl [Example 119H, (S,E)-4-(3-(6-(2-(2-chloro-6-fluorophenyl)prop-1-en-1-yl)-4-((3-(trifluoromethyl)-phenyl)sulfonyl)-3,4-dihydro-2H-benzo[b][1,4]oxazin-2-yl)propyl)thiomorpholine 1,1-dioxide] | *** (a value in the range of greater than 150 to 200) | ** (a value in the range of greater than 90 to 150)
 |  | 500 to 5000 nM | > 10000 nM | CCOc1nn(CC)cc1S(=O)(=O)N1C[C@H](CCC(=O)OC)Oc2ccc(/C=C/c3ccccc3F)cc21 [Example 89AN, (S,E)-methyl 3-(4-((3-ethoxy-1-ethyl-1H-pyrazol-4-yl)sulfonyl)-6-(2-fluorostyryl)-3,4-dihydro-2H-benzo[b][1,4]oxazin-2-yl)propanoate] |  | 
 |  | 500 to 5000 nM | > 10000 nM | COC(=O)CC[C@H]1CN(S(=O)(=O)c2cccc(OC(F)F)c2)c2cc(/C=C/c3ccc(C)cc3)ccc2O1 [Example 89BF, (S,E)-methyl 3-(4-((3-(difluoromethoxy)phenyl)sulfonyl)-6-(4-methylstyryl)-3,4-dihydro-2H-benzo[b][1,4]oxazin-2-yl)propanoate] |  | 
 |  | 500 to 5000 nM | 5000 to 10000 nM | O=C(O)CC[C@H]1CN(S(=O)(=O)c2cccc(OC(F)F)c2)c2cc(/C=C/c3ccccn3)ccc2O1 [Example 89C, (S,E)-3-(4-((3-(difluoromethoxy)-phenyl)sulfonyl)-6-(2-(pyridin-2-yl)vinyl)-3,4-dihydro-2H-benzo[b][1,4]oxazin-2-yl)propanoic acid] |  | 
 |  | 500 to 5000 nM | > 10000 nM | CCOc1nn(CC)cc1S(=O)(=O)N1C[C@H](CCC(=O)OC)Oc2ccc(/C=C/c3cccs3)cc21 [Example 89P, (S,E)-methyl 3-(4-((3-ethoxy-1-ethyl-1H-pyrazol-4-yl)sulfonyl)-6-(2-(thiophen-2-yl)vinyl)-3,4-dihydro-2H-benzo[b][1,4]oxazin-2-yl)propanoate] |  | 
< 500 nM | 500 to 5000 nM |  |  | C/C(=C\c1ccc2c(c1)N(S(=O)(=O)c1cc(C(F)(F)F)cnc1OCCO)C[C@H](CCC(=O)N1CCC(C(=O)O)CC1)O2)c1c(F)cccc1Cl [Example 129K, (S,E)-1-(3-(6-(2-(2-chloro-6-fluorophenyl)-prop-1-en-1-yl)-4-((2-(2-hydroxyethoxy)-5-(trifluoromethyl)pyridin-3-yl)sulfonyl)-3,4-dihydro-2H-benzo[b][1,4]oxazin-2-yl)propanoyl)piperidine-4-carboxylic acid] | *** (a value in the range of greater than 150 to 200) | ** (a value in the range of greater than 90 to 150)
 |  | < 500 nM | 500 to 5000 nM | COc1ccccc1/C=C/c1ccc2c(c1)N(S(=O)(=O)c1cccc(OC(F)F)c1)C[C@H](CCC(=O)O)O2 [Example 89AY, (S,E)-3-(4-((3-(difluoromethoxy)phenyl)sulfonyl)-6-(2-methoxystyryl)-3,4-dihydro-2H-benzo[b][1,4]oxazin-2-yl)propanoic acid] |  | 
 |  | < 500 nM | 500 to 5000 nM | O=C(O)CC[C@H]1CN(S(=O)(=O)c2cccc(C(F)(F)F)c2)c2cc(/C=C/c3c(Cl)cc(F)cc3Cl)ccc2O1 [Example 89CM, (S,E)-3-(6-(2,6-dichloro-4-fluorostyryl)-4-((3-(trifluoromethyl)phenyl)sulfonyl)-3,4-dihydro-2H-benzo[b][1,4]-oxazin-2-yl)propanoic acid] |  | 
 |  | < 500 nM | 500 to 5000 nM | O=C(O)C1Cc2ccc(/C=C/c3c(Cl)cccc3C(F)(F)F)cc2N(S(=O)(=O)c2cccc(C(F)(F)F)c2)C1 (centres unmarked) [Example 15D, (E)-7-(2-chloro-6-(trifluoromethyl)styryl)-1-((3-(trifluoromethyl)phenyl)sulfonyl)-1,2,3,4-tetrahydroquinoline-3-carboxylic acid] |  | 
 |  | < 500 nM | 500 to 5000 nM | COC(=O)CC[C@H]1CN(S(=O)(=O)c2cccc(OC(F)F)c2)c2cc(/C=C/c3ccccc3C#N)ccc2O1 [Example 89AR, (S,E)-methyl 3-(6-(2-cyanostyryl)-4-((3-(difluoromethoxy)phenyl)sulfonyl)-3,4-dihydro-2H-benzo[b][1,4]-oxazin-2-yl)propanoate] |  | 
 |  | < 500 nM | < 500 nM | COc1nn2c(c1S(=O)(=O)N1C[C@H](CCC(=O)O)Oc3ccc(/C=C(\C)c4c(F)cccc4Cl)cc31)CCCC2 [Example 86K, (S,E)-3-(6-(2-(2-chloro-6-fluorophenyl)prop-1-en-1-yl)-4-((2-methoxy-4,5,6,7-tetrahydropyrazolo[1,5-a]pyridin-3-yl)sulfonyl)-3,4-dihydro-2H-benzo[b][1,4]oxazin-2-yl)propanoic acid] |  | 
 |  | > 10000 nM | > 10000 nM | CCOc1nn(CC)cc1S(=O)(=O)N1C[C@H](CCC(=O)O)Oc2ccc(/C=C/c3ccccn3)cc21 [Example 89E, (S,E)-3-(4-((3-ethoxy-1-ethyl-1H-pyrazol-4-yl)sulfonyl)-6-(2-(pyridin-2-yl)vinyl)-3,4-dihydro-2H-benzo[b][1,4]oxazin-2-yl)propanoic acid] |  | 

Reference: US9896441B2 (Lycera Corporation, priority 2014, dated 2018)
